# Measured values from US6723710B2, “Compositions for inhibiting arginase activity” (The Trustees of the University of Pennsylvania, priority 1997, dated 2004).
# “Also recorded” adds a separate entry of the source.
# Experiments:
# [1] = system: penile corpus cavernosum smooth muscle; assay: organ bath, NANC nerve-mediated relaxation of penile corpus cavernosum tissue strips; parameters: species or system rabbit
# Text: Penile cavernosal tissue strips were obtained from male New Zealand white rabbits (3.0-3.5 kilogram body weight) and mounted in organ bath preparations, as described (Kim et al., 1991, J. Clin. Invest. 88:112-118). Tissues strips at optimal isometric tension were contracted using 40 nanomolar endothelin-1 and subjected to electrical field stimulation (EFS), by means of two platinum plate electrodes positioned on either side of the tissue and a current amplifier in series with a square pulse stimulator. Each stimulation period lasted 20 seconds with trains of square waves having a pulse duration of 0.5 milliseconds and a potential difference of 10 volts. Frequency was varied from 1 to 10 Hertz. For all experiments, NANC responses were isolated in tissue strips by treatment with indomethacin to inhibit vasoactive prostanoid synthesis, 10 micromolar bretylium to inhibit adrenergic neurotransmission, and 1 micromolar atropine to block muscarinic acetylcholine receptors. All tissues were first subject to EFS in the absence of ABHA, and then stimulations were repeated in the presence of increasing concentrations (0.1 to 1.0 millimolar) ABHA following a 20 minute incubation period. […] Responses were further analyzed by determining the ratios of the responses in the presence and absence of ABHA treatment.
# rat liver arginase = molecular target: T1, rat liver arginase (Rattus norvegicus, UniProt P07824); assay: radioactive L-[guanidino-14C]arginine arginase assay (Example 3); format: biochemical; parameters: made in house; conditions: [14C-guanidino]-L-arginine assay, low inhibitor concentrations, assuming competitive inhibition; read-out: Ki (apparent)
# T1 sequence (P07824 1-323): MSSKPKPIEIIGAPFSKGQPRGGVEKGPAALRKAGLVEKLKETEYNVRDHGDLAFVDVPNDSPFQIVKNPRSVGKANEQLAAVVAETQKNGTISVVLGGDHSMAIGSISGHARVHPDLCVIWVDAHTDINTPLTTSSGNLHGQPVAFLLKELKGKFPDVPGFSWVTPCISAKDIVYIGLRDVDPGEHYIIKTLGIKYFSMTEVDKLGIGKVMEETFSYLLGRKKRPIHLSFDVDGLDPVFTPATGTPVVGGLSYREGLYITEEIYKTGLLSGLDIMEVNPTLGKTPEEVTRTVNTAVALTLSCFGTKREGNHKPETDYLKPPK
# Procedure: Assays were performed in 100 micromolar MnCl2, 100 millimolar CHES-NaOH (pH 9.0). The reactions were initiated by addition of 5 microliters of a circa 1 unit per milliliter enzyme solution to 45 microliters of reaction mixture containing CHES buffer, 1.4 millimolar L-arginine, about 5.0×10^4 counts per minute of L-[guanidino- ^14C]arginine, and variable concentrations of the appropriate inhibitor. After a 5-15 minute reaction time, 200 microliters of a stop solution containing 7 molar urea, 10 millimolar L-arginine, and 0.25 molar acetic acid (pH 4.5) was added to the reaction (arginase has essentially no activity under these conditions). [^14C]-Urea was separated from non-reacted L-[guanidino-^14 C]arginine by treatment with 200 microliters of a 1:1 (vol/vol) slurry of DOWEX™ 50 W-X8 in water, and quantitated by adding 200 microliters of the supernatant from the DOWEX™ treatment to 3 milliliters of LIQUISCINT™ (National Diagnostics) for liquid scintillation counting in a Beckman LS5000CE counter.
# [2] = system: internal anal sphincter (IAS) smooth muscle; assay: NANC nerve-mediated relaxation of IAS smooth muscle strips by electrical field stimulation; parameters: species or system opossum (Didelphis virginiana); conditions: for decrease in basal IAS tension after ABHA: 1×10^−4 molar
# Text: The entire anal canal was isolated carefully by dissection and transferred to a dissecting tray containing oxygenated (95% O2 plus 5% CO2) Krebs' solution. The composition of the Krebs' solution was as follows (in millimolar): NaCl, 118.07; KCl 4.69; […] MgSO4, 1.16; […] NaHCO3, 25 and glucose (Pufahl et al., 1995, Biochemistry 34:1930-1941; […] et al., 1993, Biochem. Biophys. Res. Commun. 196:1558-1565). The anal canal was cleaned of extraneous connective tissue and blood vessels. Following this, the anal canal was opened by making an incision along the longitudinal axis, and was pinned flat with the mucosal side facing up. The mucosa and submucosa were removed by sharp dissection. Circular smooth muscle strips were obtained from the whole circumference of the anal canal and divided into two equal strips (about 1×8 millimeters). Both ends of the muscle strips were secured with silk sutures (4-0: Ethicon Inc., Sommerville, N.J.) and used for the measurement of isometric tension. […] One end of each muscle strip was fixed to the bottom of the muscle bath with a tissue holder and the other end was attached to an isometric force transducer (model FT03; Grass Instruments Co., Quincy, Mass.) in order to measure isometric tension. Smooth muscle tension was recorded using a […] recorder (model […]; Beckman Instruments, Schiller Park, Ill.). […] J. Physiol. 255:[…]-[…]). Only those smooth muscle strips that developed spontaneous and steady tension and relaxed in response to electrical field stimulation (EFS) were used. EFS was delivered, via a pair of platinum wires, from a Grass stimulator (Model S88; Grass Instruments Co., Quincy, Mass.) connected in series to a Med-Lab […] (Med-Lab Instruments, Loveland, Colo.). […] These parameters of EFS are known to cause relaxation of IAS smooth muscle by selective activation of NANC myenteric neurons. Neurally-mediated relaxation of IAS smooth muscle strips was quantified in response to different frequencies of EFS. […] To determine the influence of arginase on NANC nerve-mediated relaxation of IAS, the effects of different doses of arginase on relaxation were first determined. […] The effectiveness of arginase inhibitors (L-OH-Arg and ABHA) on arginase-induced attenuation of EFS-induced IAS relaxation was then tested. Optimal doses of arginase and L-OH-Arg in IAS have been reported ([…] and […]. Pharmacol. Exp. Ther. 282:378-384). In order to determine the selectivity of arginase inhibitors in IAS, their effects on IAS relaxation suppressed by the NO synthase inhibitor L-NNA ([…]) were tested. […] To examine the physiological relevance of arginase inhibitors in IAS relaxation, the influence of selected concentrations of arginase inhibitors on EFS-induced IAS relaxation was examined. […] Each smooth muscle strip served as its own control. […] The results are expressed as means±standard error.
smiles,measurement,setting,value
"N[C@@H](CCCCB(O)O)C(=O)O [compound 7, 2(S)-amino-6-boronohexanoic acid]",enhancement of relaxation in response to EFS,"[1]; 0.1 to 1.0 millimolar ABHA, 1 to 10 Hertz",significant enhancement; also recorded: significantly enhanced relaxation; also recorded: statistically significant
same,relaxation in the absence of electrical stimulation,[1]; corpus cavernosum strips contracted with endothelin-1,moderate relaxation
same,Ki,rat liver arginase,100 nM
same,decrease in basal IAS tension after ABHA,[2]; 0.5 Hertz EFS,56.5±7.0%
same,decrease in basal IAS tension after ABHA,[2]; 1 Hertz EFS,73.6±3.5%
same,effect on arginase-suppressed EFS-induced IAS relaxation,"[2]; exogenous arginase, L-HO-Arg 1×10^−4 molar, listed as ABHA",reversal
same,augmentation of NANC nerve-mediated IAS relaxation by EFS,"[2]; lower frequencies of EFS, listed as ABHA",significant and concentration-dependent augmentation
same,reversal of L-NNA-suppressed IAS relaxation,"[2]; with L-NNA, L-HO-Arg and ABHA 3×10^−4 molar",did not cause any reversal; also recorded: no effect
